Laboratory results as given in US10810329B2, “In silico design of peptides equilibrated in a lipid bilayer with partition free energies indicating probability of antimicrobial activity” (priority 2015, dated 2020).
Values after ≈ are worked out from the molar mass of the structure shown. Peptide text beside a SMILES is read from it.

Tests used:
E. coli ATCC 25922 = type: cell-based, Escherichia coli; settings: for Antimicrobial activity (MIC) Experimental values: ATCC 25922; for MIC in MH medium: ATCC 25922, 16 h
Protocol: (§1) MIC: Minimal Inhibitory Concentration of AMPs in MH Medium Against E. coli ATCC 25922 Minimal inhibitory concentration (MIC) represents for the lowest concentration of peptide at which the AMP can still kill 90% of the bacteria. All MIC tests for WLK peptide series SEQ ID NO:1-13 were measured against Escherichia coli strain (ATCC 25922) in triplicate. Peptide concentration was determined by UV spectrophotometer (Ultrospec 1100 pro from Amersham Biosciences) at 280 nm with proper extinction coefficient. (Gill S. C. & Von Hippel P. H., Analytical biochemistry 1989, 182(2), 319-326). All of the samples were prepared from a stock solution containing peptides of concentrations 5, 2.5, 1.25, 0.625, 0.313, 0.156 and 0.078 mg/ml. Bacteria culture in the middle of logarithmic growth at a concentration of 5×10^5 colony-formation unit (CFU) and protein solution at the aforementioned concentrations were uniformly mixed in a 96-well culture plate (each well contains 1 microliter protein solution and 99 microliter of bacteria culture). After growing the culture at 37° C. for 16 hours, how bacterial growth was inhibited was measured by Thermo Max (Molecular Devices) at the wavelength of 600 nm. The MIC values were determined by triplicates of the above experiments.

[1] = tested on: Escherichia coli strain (ATCC 25922); type: cell-based
Protocol: as §1, with “Minimal” for “MIC: Minimal Inhibitory Concentration of AMPs in MH Medium Against E. coli ATCC 25922 Minimal”

human red blood cells = type: cell-based
Protocol: Hemolysis Activity Test Hemolytic activity was determined by measuring hemolysis of human red blood cells. Fresh red blood cells and PBS buffer solution (pH 7.4) was mixed uniformly and centrifugated by relative centrigugal force (RCF) 800 g rpm for 10 minutes, washed and then diluted by the PBS buffer solution to 10% concentration by volume (v/v). All the tested peptides were prepared with different concentrations (800, 400, 200, 100, 50, 25, 12.5, 6.25, 3.13, 1.56 μg/ml) and then mixed with PBS buffer in 1:1 ratio (100 μL:100 μL) by volume. In 1:1 ratio (v/v), the red blood cell solution was mixed with a PBS buffer, with or without 2% Triton X-100, respectively as the positive and negative controls. All samples to be tested were settled at 37° C. environment for 1 hour. Next, the specimen was centrifuged under RCF 800 g for 10 minutes and the absorbance of its supernatant was measured at a wavelength of 450 nm. The hemolytic activity would be measured according to the following formula: “% hemolysis=[Asample−APBS]/[ATritonX100−APBS]”

| Antimicrobial activity (MIC) Experimental values (E. coli ATCC 25922) [mg/L] | MIC in MH medium (E. coli ATCC 25922) [mg/L] | MIC in LYM medium, NaCl 50 [1] [mg/L] | MIC in LYM medium, NaCl 100 [1] [mg/L] | MIC in LYM medium, NaCl 200 [1] [mg/L] | MIC in LYM medium, NaCl 300 [1] [mg/L] | MIC in LYM medium, control [1] [mg/L] | SMILES | hemolytic activity on human erythrocytes (human red blood cells) |
| --- | --- | --- | --- | --- | --- | --- | --- | --- |
| 1.56 | 1.56 (≈ 0.86 µM) | 1.56 (≈ 0.86 µM) | 3.13 (≈ 1.73 µM) | 3.13 (≈ 1.73 µM) | 3.13 (≈ 1.73 µM) | 1.56 (≈ 0.86 µM) | CC(C)C[C@H](NC(=O)[C@H](Cc1c[nH]c2ccccc12)NC(=O)[C@H](CCCCN)NC(=O)[C@H](CC(C)C)NC(=O)[C@H](Cc1c[nH]c2ccccc12)NC(=O)[C@H](CCCCN)NC(=O)[C@H](CC(C)C)NC(=O)[C@H](Cc1c[nH]c2ccccc12)NC(=O)[C@H](CCCCN)NC(=O)[C@H](CCCCN)NC(=O)[C@H](CCCCN)NC(=O)[C@@H](N)CCCCN)C(=O)N[C@@H](CCCCN)C(=O)O [SEQ ID NO. 12, KKKKWLKWLKWLK] (H-KKKKWLKWLKWLK-OH) | lower hemolytic activity |
| 12.5 | 12.5 (≈ 6.89 µM) | 3.13 (≈ 1.73 µM) | 3.13 (≈ 1.73 µM) | 12.5 (≈ 6.89 µM) | 50 (≈ 27.6 µM) | 1.56 (≈ 0.86 µM) | CC(C)C[C@H](NC(=O)[C@H](Cc1c[nH]c2ccccc12)NC(=O)[C@H](CCCCN)NC(=O)[C@H](CC(C)C)NC(=O)[C@H](Cc1c[nH]c2ccccc12)NC(=O)[C@H](CCCCN)NC(=O)[C@@H](N)CC(C)C)C(=O)N[C@@H](CCCCN)C(=O)N[C@@H](CCCCN)C(=O)N[C@@H](CCCCN)C(=O)N[C@@H](CCCCN)C(=O)N[C@@H](CCCCN)C(=O)N[C@@H](Cc1c[nH]c2ccccc12)C(=O)O [SEQ ID NO. 4, LKWLKWLKKKKKW] (H-LKWLKWLKKKKKW-OH; N-terminus and C-terminus assumed) |  |
| 6.25 | 6.25 (≈ 3.45 µM) | 1.56 (≈ 0.86 µM) | 6.25 (≈ 3.45 µM) | 12.5 (≈ 6.89 µM) | 12.5 (≈ 6.89 µM) | 1.56 (≈ 0.86 µM) | CC(C)C[C@H](NC(=O)[C@H](Cc1c[nH]c2ccccc12)NC(=O)[C@H](CCCCN)NC(=O)[C@H](CC(C)C)NC(=O)[C@H](Cc1c[nH]c2ccccc12)NC(=O)[C@H](CCCCN)NC(=O)[C@H](CC(C)C)NC(=O)[C@H](Cc1c[nH]c2ccccc12)NC(=O)[C@@H](N)CCCCN)C(=O)N[C@@H](CCCCN)C(=O)N[C@@H](CCCCN)C(=O)N[C@@H](CCCCN)C(=O)N[C@@H](CCCCN)C(=O)O [SEQ ID NO. 2, KWLKWLKWLKKKK] (H-KWLKWLKWLKKKK-OH; N-terminus and C-terminus assumed) |  |
